Holding throughout (type): biochemical
One assay addresses FXa (Homo sapiens, UniProt P00742). Nature of the assay: Related protease inhibition: FXa, fluorogenic substrate. Particulars: fluorogenic substrate at Km, 25° C.; H1-H3 = % activity at 40 μM; read-out: IC50 (human FXa) nM. How it is done: (§1) Human serine protease enzyme Plasma Kallikrein, KLK1, FXa, Plasmin, Thrombin and Trypsin were assayed for enzymatic activity using an appropriate fluorogenic substrate at Km concentration, FXIa at fixed substrate concentration of 100 μM and various concentrations of the test compound.

Assay [1] addresses T1, Human Factor XIIa (hFXIIa) (Homo sapiens, UniProt P00748).
T1 construct: purchased Enzyme Research Laboratories
T1 sequence (P00748 373-615 limits assumed): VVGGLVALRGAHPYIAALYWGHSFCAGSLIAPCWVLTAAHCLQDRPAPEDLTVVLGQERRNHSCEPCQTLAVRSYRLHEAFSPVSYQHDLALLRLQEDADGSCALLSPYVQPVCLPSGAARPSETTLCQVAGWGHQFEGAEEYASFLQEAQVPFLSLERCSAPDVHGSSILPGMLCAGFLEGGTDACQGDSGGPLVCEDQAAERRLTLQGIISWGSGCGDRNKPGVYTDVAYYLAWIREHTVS
T1 sequence (P00748 20-372 partner limits assumed): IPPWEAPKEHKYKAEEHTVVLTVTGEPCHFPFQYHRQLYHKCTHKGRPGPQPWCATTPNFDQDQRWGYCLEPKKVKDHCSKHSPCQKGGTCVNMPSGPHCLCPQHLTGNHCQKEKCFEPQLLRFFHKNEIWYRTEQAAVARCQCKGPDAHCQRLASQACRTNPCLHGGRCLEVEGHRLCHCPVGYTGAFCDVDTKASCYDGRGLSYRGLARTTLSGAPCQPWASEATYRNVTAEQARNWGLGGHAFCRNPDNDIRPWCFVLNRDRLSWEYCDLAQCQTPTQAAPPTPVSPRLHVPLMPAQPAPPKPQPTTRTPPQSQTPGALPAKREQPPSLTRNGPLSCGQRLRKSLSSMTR
Nature of the assay: Determination of Human Factor XIIa (hFXIIa) inhibition, fluorogenic substrate IC50 assay. Particulars: fluorogenic substrate H-DPro-Phe-Arg-AFC at Km, 25° C., read-out: Human FXIIa IC50. The protocol:
Determination of Human Factor XIIa (hFXIIa) inhibition
The Km for the cleavage of the substrate by hFXIIa was determined by standard transformation of the Michaelis-Menten equation, with subsequent inhibition assays performed at substrate Km concentration.

The target in a further assay is Thrombin (Homo sapiens, UniProt P00734). As to the kind of experiment: Related protease inhibition: Thrombin, fluorogenic substrate. Particulars: fluorogenic substrate at Km, 25° C.; H1-H3 = % activity at 40 μM; read-out: IC50 (human thrombin) nM. How it is done:
as §1

17 compounds from patent publication US20260132132A1, “3A,4,5,6-TETRAHYDRO-1 H-PYRAZOLO[3,4-C]PYRIDIN-7(7AH)-ONE DERIVATIVES AS FACTOR XIIA INHIBITORS” (KALVISTA PHARMACEUTICALS LIMITED, priority 2022, published 2026) can be followed below.

Chain of FXa (P00742 235-488 limits assumed): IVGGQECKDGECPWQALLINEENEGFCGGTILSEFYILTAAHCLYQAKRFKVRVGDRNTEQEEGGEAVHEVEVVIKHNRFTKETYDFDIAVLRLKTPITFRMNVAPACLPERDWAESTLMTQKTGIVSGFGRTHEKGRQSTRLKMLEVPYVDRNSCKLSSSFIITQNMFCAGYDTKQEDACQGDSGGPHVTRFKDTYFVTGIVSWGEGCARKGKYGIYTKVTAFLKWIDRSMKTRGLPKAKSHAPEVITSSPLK
Chain of FXa (P00742 41-179 partner limits assumed): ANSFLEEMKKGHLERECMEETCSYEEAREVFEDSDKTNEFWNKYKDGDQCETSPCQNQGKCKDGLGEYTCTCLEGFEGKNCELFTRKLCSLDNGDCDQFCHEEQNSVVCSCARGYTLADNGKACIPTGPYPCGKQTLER

With `CCNC(=O)c1nn(-c2cccc(Cl)c2)c2c1CCN(c1cccc(N3C(=O)C[C@H]4CCC[C@H]43)c1)C2=O` [Example 1413, 1-(3-chlorophenyl)-N-ethyl-7-oxo-6-(3-((3aR,6aR)-2-oxohexahydrocyclopenta[b]pyrrol-1(2H)-yl)phenyl)-4,5,6,7-tetrahydro-1H-pyrazolo[3,4-c]pyridine-3-carboxamide], the activity at 40 µM at FXa is over 80%; at Thrombin it was 20 to 80%. Moreover, the IC50 (as a rule, the point on the concentration scale where inhibition reaches its midpoint) in assay [1] is 10000 to 40000 nM.
For `Cc1ccc(CNC(=O)c2nn(-c3cccc(Cl)c3)c3c2CCN(c2ccc4c(c2)C(=O)N(CCO)CC4)C3=O)cn1` [Example 1414, 1-(3-chlorophenyl)-6-(2-(2-hydroxyethyl)-1-oxo-1,2,3,4-tetrahydroisoquinolin-7-yl)-N-((6-methylpyridin-3-yl)methyl)-7-oxo-4,5,6,7-tetrahydro-1H-pyrazolo[3,4-c]pyridine-3-carboxamide], in that order: 20 to 80%, 20 to 80% and 100 to 300 nM.
Turning to `CN1CCc2ccc(N3CCc4c(C(=O)N[C@H]5COC[C@@H]5O)nn(-c5cccc(Cl)c5)c4C3=O)cc2C1=O` [Example 1415, 1-(3-chlorophenyl)-N-((3S,4R)-4-hydroxytetrahydrofuran-3-yl)-6-(2-methyl-1-oxo-1,2,3,4-tetrahydroisoquinolin-7-yl)-7-oxo-4,5,6,7-tetrahydro-1H-pyrazolo[3,4-c]pyridine-3-carboxamide], the activity at 40 µM on FXa and on Thrombin was over 80% each time. For the same compound, the half-maximal inhibitory concentration (IC50) in assay [1] was 100 to 300 nM.
On to `CN1CCc2ccc(N3CCc4c(C(=O)N[C@H]5COC[C@H]5O)nn(-c5cccc(Cl)c5)c4C3=O)cc2C1=O` [Example 1416, 1-(3-chlorophenyl)-N-((3S,4S)-4-hydroxytetrahydrofuran-3-yl)-6-(2-methyl-1-oxo-1,2,3,4-tetrahydroisoquinolin-7-yl)-7-oxo-4,5,6,7-tetrahydro-1H-pyrazolo[3,4-c]pyridine-3-carboxamide], for which the activity at 40 µM on FXa and at Thrombin was 20 to 80% each time. The IC50 in assay [1] fell in the range of 100 to 300 nM.
Regarding `CN1CCc2ccc(N3CCc4c(C(=O)NCCCO)nn(-c5cccc(Cl)c5)c4C3=O)cc2C1=O` [Example 1417, 1-(3-chlorophenyl)-N-(3-hydroxypropyl)-6-(2-methyl-1-oxo-1,2,3,4-tetrahydroisoquinolin-7-yl)-7-oxo-4,5,6,7-tetrahydro-1H-pyrazolo[3,4-c]pyridine-3-carboxamide], the activity at 40 µM on FXa and on Thrombin was 20 to 80% throughout. In addition, the IC50 in assay [1] lay in the range of 300 to 1000 nM.
With `CCNC(=O)c1nn(-c2cccc(Cl)c2)c2c1CCN(c1cc3c(cn1)OCCN(C)C3=O)C2=O` [Example 1418, 1-(3-chlorophenyl)-N-ethyl-6-(4-methyl-5-oxo-2,3,4,5-tetrahydropyrido[4,3-f][1,4]oxazepin-7-yl)-7-oxo-4,5,6,7-tetrahydro-1H-pyrazolo[3,4-c]pyridine-3-carboxamide], the results for the activity at 40 µM on FXa and on Thrombin were 20 to 80% and over 80%, respectively. In assay [1], the IC50 lay within 300 to 1000 nM.
As to `CCNC(=O)c1nn(-c2cccc(Cl)c2)c2c1CCN(c1ccc(OC)c(CN3CCCCC3)c1)C2=O` [Example 1419, 1-(3-chlorophenyl)-N-ethyl-6-(4-methoxy-3-(piperidin-1-ylmethyl)phenyl)-7-oxo-4,5,6,7-tetrahydro-1H-pyrazolo[3,4-c]pyridine-3-carboxamide], the activity at 40 µM on FXa and at Thrombin was 20 to 80% throughout. Moreover, the IC50 in assay [1] lay within 1000 to 3000 nM.
With `CCNC(=O)c1nn(-c2cccc(Cl)c2)c2c1CCN(c1cccc(N3CCN(C)CC3=O)c1)C2=O` [Example 1420, 1-(3-chlorophenyl)-N-ethyl-6-(3-(4-methyl-2-oxopiperazin-1-yl)phenyl)-7-oxo-4,5,6,7-tetrahydro-1H-pyrazolo[3,4-c]pyridine-3-carboxamide], the activity at 40 µM on FXa and at Thrombin was over 80% throughout. Besides, in assay [1], the IC50 lay within 3000 to 10000 nM.
In the case of `CN1CCc2ccc(N3CCc4c(C(=O)NCC5(O)CC5)nn(-c5cccc(Cl)c5)c4C3=O)cc2C1=O` [Example 1421, 1-(3-chlorophenyl)-N-((1-hydroxycyclopropyl)methyl)-6-(2-methyl-1-oxo-1,2,3,4-tetrahydroisoquinolin-7-yl)-7-oxo-4,5,6,7-tetrahydro-1H-pyrazolo[3,4-c]pyridine-3-carboxamide], the activity at 40 µM on FXa and at Thrombin was over 80% in each case. Further, the IC50 in assay [1] is 300 to 1000 nM.
Regarding `CCNC(=O)c1nn(-c2cccc(Cl)c2)c2c1CCN(c1ccc3c(c1)NCCO3)C2=O` [Example 1422, 1-(3-chlorophenyl)-6-(3,4-dihydro-2H-benzo[b][1,4]oxazin-6-yl)-N-ethyl-7-oxo-4,5,6,7-tetrahydro-1H-pyrazolo[3,4-c]pyridine-3-carboxamide], the activity at 40 µM at FXa and at Thrombin was 20 to 80% in each case. Also, the IC50 in assay [1] was 10000 to 40000 nM.
As to `CCNC(=O)c1nn(-c2cccc(Cl)c2)c2c1CCN(c1cccc(N3CCN(C)CC3)c1)C2=O` [Example 1423, 1-(3-Chlorophenyl)-N-ethyl-6-(3-(4-methylpiperazin-1-yl)phenyl)-7-oxo-4,5,6,7-tetrahydro-1H-pyrazolo[3,4-c]pyridine-3-carboxamide], the activity at 40 µM at FXa and on Thrombin was 20 to 80% each time. Moreover, in assay [1], the IC50 fell in the range of 1000 to 3000 nM.
In the case of `CN1CCc2ccc(N3CCc4c(C(=O)NC5CCNCC5(F)F)nn(-c5cccc(Cl)c5)c4C3=O)cc2C1=O` (stereo not drawn) [Example 1424, 1-(3-chlorophenyl)-N-(3,3-difluoropiperidin-4-yl)-6-(2-methyl-1-oxo-1,2,3,4-tetrahydroisoquinolin-7-yl)-7-oxo-4,5,6,7-tetrahydro-1H-pyrazolo[3,4-c]pyridine-3-carboxamide], the activity at 40 µM is 20 to 80% at FXa and over 80% on Thrombin. In addition, in assay [1], the 50% inhibitory concentration (IC50) was 100 to 300 nM.
In the same order, the values of `CN1CCc2ccc(N3CCc4c(C(=O)NC5CNCC5(F)F)nn(-c5cccc(Cl)c5)c4C3=O)cc2C1=O` (stereo not drawn) [Example 1425, 1-(3-chlorophenyl)-N-(4,4-difluoropyrrolidin-3-yl)-6-(2-methyl-1-oxo-1,2,3,4-tetrahydroisoquinolin-7-yl)-7-oxo-4,5,6,7-tetrahydro-1H-pyrazolo[3,4-c]pyridine-3-carboxamide] are over 80%, over 80% and 300 to 1000 nM.
Take `CCNC(=O)c1nn(-c2cccc(Cl)c2)c2c1CCN(c1cccc(N3CCOCC3=O)c1)C2=O` [Example 1426, 1-(3-chlorophenyl)-N-ethyl-7-oxo-6-(3-(3-oxomorpholino)phenyl)-4,5,6,7-tetrahydro-1H-pyrazolo[3,4-c]pyridine-3-carboxamide]: the activity at 40 µM on FXa and on Thrombin was 20 to 80% in each case. The half-maximal inhibitory concentration (IC50) in assay [1] fell in the range of 10000 to 40000 nM.
Consider `CN1CCc2ccc(N3CCc4c(C(=O)NCC5(N)CC5)nn(-c5cccc(Cl)c5)c4C3=O)cc2C1=O` [Example 1427, N-((1-aminocyclopropyl)methyl)-1-(3-chlorophenyl)-6-(2-methyl-1-oxo-1,2,3,4-tetrahydroisoquinolin-7-yl)-7-oxo-4,5,6,7-tetrahydro-1H-pyrazolo[3,4-c]pyridine-3-carboxamide], for which the activity at 40 µM at FXa and on Thrombin was over 80% each time. Besides, in assay [1], the IC50 is 300 to 1000 nM.
Turning to `CCNC(=O)c1nn(-c2cccc(Cl)c2)c2c1CCN(c1cccc(N3CC4(COC4)CC3=O)c1)C2=O` [Example 1428, 1-(3-chlorophenyl)-N-ethyl-7-oxo-6-(3-(7-oxo-2-oxa-6-azaspiro[3.4]octan-6-yl)phenyl)-4,5,6,7-tetrahydro-1H-pyrazolo[3,4-c]pyridine-3-carboxamide], the activity at 40 µM at FXa and on Thrombin was over 80% throughout. Also, the IC50 in assay [1] was in the range of 10000 to 40000 nM.
With `CCNC(=O)c1nn(-c2cccc(Cl)c2)c2c1CCN(c1ccc3c(c1)N(C(C)=O)CC31CC1)C2=O` [Example 1429, 6-(1′-acetylspiro[cyclopropane-1,3′-indolin]-6′-yl)-1-(3-chlorophenyl)-N-ethyl-7-oxo-4,5,6,7-tetrahydro-1H-pyrazolo[3,4-c]pyridine-3-carboxamide], the activity at 40 µM at FXa and on Thrombin was 20 to 80% each time. Moreover, the IC50 in assay [1] fell in the range of 300 to 1000 nM.
